Consider 1 substance from patent US10017535B2, “Amphiphilic compounds with neuroprotective properties” (USTAV ORGANICKE CHEMIE A BIOCHEMIE AV CR, v.v.i., priority 2014, dated 2018).

Test [1] addresses T1, NR1-1a/NR2B NMDA receptor (Rattus norvegicus, UniProt P35439+Q00960).
T1 construct: expressed in transfected cells; host or cells: HEK293 cells (ATCC CRL1573)
Description: Patch-clamp inhibition of glutamate-evoked currents at recombinant NMDA receptors in transfected HEK293 cells. The test is classed as cell-based. The note with it: calculated from relative steroid-induced inhibition, Hill's coefficient 1.2; read-out: IC50. In a few lines:
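HEK293 cells co-transfected with rat NR1-1a/NR2B plus GFP were whole-cell patch-clamped 16-40 h post-transfection at −60 mV. Currents were evoked by 1 mmol·l^−1 glutamate with 10 μmol·l^−1 glycine in ECS pH 7.3, and steroid was co-applied in DMSO via fast perfusion. IC50 came from relative inhibition.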

The target of test [2] is T1, NR1-1a/NR2B NMDA receptor. The note with it: 100 μmol·l^−1 pregnanolone sulfate, recombinant NR1/NR2B receptors, n=5, cited from earlier work.
Test [3] deals with NMDA receptors on hipocampal neurones. The note with it: 100 μmol·l^−1 pregnanolone sulfate, responses to 100 μmol·l^−1 NMDA, n=5; cited from earlier work.

Like-named read-outs stand apart in the source and are kept apart here.

T1 sequence (Q00960 27-1482, other chains not shown): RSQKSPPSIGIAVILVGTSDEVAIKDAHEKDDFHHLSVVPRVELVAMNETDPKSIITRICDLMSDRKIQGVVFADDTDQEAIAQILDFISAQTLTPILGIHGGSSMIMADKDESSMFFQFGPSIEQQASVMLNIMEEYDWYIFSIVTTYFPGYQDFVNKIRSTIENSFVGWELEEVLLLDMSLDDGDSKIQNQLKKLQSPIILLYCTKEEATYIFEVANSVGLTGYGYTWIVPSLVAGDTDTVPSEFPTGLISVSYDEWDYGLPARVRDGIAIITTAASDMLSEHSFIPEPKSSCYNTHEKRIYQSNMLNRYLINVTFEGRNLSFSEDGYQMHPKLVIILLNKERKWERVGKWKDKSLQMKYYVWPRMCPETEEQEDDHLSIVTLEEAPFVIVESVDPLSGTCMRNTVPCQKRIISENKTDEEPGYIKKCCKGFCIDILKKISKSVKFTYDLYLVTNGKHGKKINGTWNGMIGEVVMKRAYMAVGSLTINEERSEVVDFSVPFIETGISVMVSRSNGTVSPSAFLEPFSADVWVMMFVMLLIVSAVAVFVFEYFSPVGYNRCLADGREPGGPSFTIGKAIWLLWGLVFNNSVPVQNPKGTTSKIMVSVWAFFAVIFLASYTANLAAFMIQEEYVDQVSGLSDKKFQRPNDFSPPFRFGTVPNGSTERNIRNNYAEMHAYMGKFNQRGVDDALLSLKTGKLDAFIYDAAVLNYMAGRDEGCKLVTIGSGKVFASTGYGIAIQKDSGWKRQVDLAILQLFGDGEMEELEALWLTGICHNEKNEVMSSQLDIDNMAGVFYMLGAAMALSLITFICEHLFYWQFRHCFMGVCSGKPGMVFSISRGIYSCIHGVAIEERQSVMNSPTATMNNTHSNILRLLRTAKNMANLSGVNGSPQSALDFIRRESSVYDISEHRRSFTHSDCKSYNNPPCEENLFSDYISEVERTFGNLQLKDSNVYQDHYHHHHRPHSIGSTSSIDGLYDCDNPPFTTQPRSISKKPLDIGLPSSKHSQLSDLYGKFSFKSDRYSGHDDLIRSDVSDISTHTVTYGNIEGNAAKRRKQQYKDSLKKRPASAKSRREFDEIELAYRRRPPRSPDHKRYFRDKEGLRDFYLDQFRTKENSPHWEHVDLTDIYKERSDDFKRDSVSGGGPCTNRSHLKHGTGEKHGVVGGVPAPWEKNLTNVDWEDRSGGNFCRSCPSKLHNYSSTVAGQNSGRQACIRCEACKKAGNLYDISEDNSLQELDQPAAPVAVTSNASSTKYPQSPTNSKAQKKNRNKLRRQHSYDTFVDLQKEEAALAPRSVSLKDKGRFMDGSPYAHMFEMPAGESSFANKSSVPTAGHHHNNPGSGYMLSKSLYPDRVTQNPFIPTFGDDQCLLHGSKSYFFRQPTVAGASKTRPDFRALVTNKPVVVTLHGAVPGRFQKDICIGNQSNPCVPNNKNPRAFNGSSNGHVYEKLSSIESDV

Regarding “5beta-pregnanolon-3alpha-yl 3-sulfate [3alfa,5beta-Pregnanolone sulfate]”, the IC50 in test [1] is 55 µM. Further, the “mean inhibition effect (Mean % change ± SD)” value was 67% in test [2] (listed as 5beta-pregnanolon-3alpha-yl 3-sulfate) and 67.2±8.2% in test [2] (listed as pregnanolone sulfate). For the same substance, the mean inhibition effect in test [3] was 71.3±5.0%.
